Melting point data for 47 compounds are collected here from a melting point compilation (Tetko et al.).

SMILES strings stand for the structures.

By melting point is commonly meant the temperature, or range, at which the solid turns liquid. In turn, `CCSc1ccc(Cl)cc1C(=O)O` yielded a melting point of 154 to 156 °C. The compound `Cc1nn(Cc2ccc(Cl)cc2)c(C)c1CO` registered a melting point of 132 to 134 °C. With `O=C(O)COc1ccccc1OCc1ccccc1` the figure was 87 to 89 °C; with `COc1ccc(N)cc1NS(C)(=O)=O`, 125 to 127 °C.

`CNC(C(=O)O)c1ccc(F)cc1F` (configuration not stated) came in with a melting point of 277 to 279 °C. For the compound `Nc1cc(Cl)c(Cl)nc1N`, the melting point was 149 to 151 °C.

On to `O=S(=O)(Cl)c1ccc2c(c1)CCC2`, for which the melting point was in the range of 33 to 42 °C. Regarding `O=C(O)c1cncnc1-c1ccccc1`, the melting point fell in the range of 141 to 143 °C.

In the case of `Cc1csc2ncc(C(=O)O)c(=O)n12`, the melting point was in the range of 249 to 251 °C. For `CC(Cl)c1nc2scc(-c3ccccc3)c2c(=O)[nH]1` (configuration not stated), the melting point was 165 to 167 °C. Compound `NCCCN1C(=O)C2C3C=CC(C3)C2C1=O` (configuration not stated) showed a melting point of 66 to 68 °C. Consider `Cc1cc(C(=O)CCl)c(C)n1NC(=O)c1ccccc1`, for which the melting point is 141 to 143 °C. In turn, `O=Cc1cccc(OCC(F)(F)F)c1` had a melting point of 29 to 31 °C. Regarding `O=C(O)CCc1nc2sc3c(c2c(=O)[nH]1)CCC3`, the melting point was 220 to 222 °C. Turning to `O=C(Nc1cccc(Cl)c1)c1ccc(Cl)nc1`, the melting point fell in the range of 177 to 179 °C. For `CC1CN(Cc2ccccc2N)CC(C)O1` (configuration not stated), the melting point is 93 to 95 °C.

With `O=S(=O)(Cl)c1cc2ccc(Cl)nc2cc1F`, the melting point was in the range of 128 to 130 °C.

Consider `C/C(=N\O)c1sc(C)nc1C`, for which the melting point is 131 to 133 °C.

The compound `Cc1cccc(-c2nc(C)n[nH]2)c1` yielded a melting point of 140 to 142 °C.

Compound `O=C(O)C1CCCN1C(=O)NC1CCCCC1` (configuration not stated) came in with a melting point of 175 to 177 °C. Compound `NC(=O)NC(C(=O)O)c1ccccc1` (configuration not stated) registered a melting point of 201 to 203 °C. `CN1CCC(Nc2ccc3cn[nH]c3c2)CC1`: the melting point was in the range of 165 to 167 °C. Compound `Nc1cccc(NC(=O)NCc2ccncc2)c1` came in with a melting point of 159 to 161 °C. In the case of `CCc1cc(Cl)nc(-c2ccc([N+](=O)[O-])cc2)n1`, the melting point lay in the range of 103 to 105 °C.

`Nc1nonc1-c1ccc(F)cc1` yielded a melting point of 125 to 127 °C. The compound `CCOC(=O)c1cc(C)nc2cc(C)nn12` came in with a melting point of 81 to 83 °C. Regarding `O=c1cc(-c2cccc(Cl)c2)[nH]c(=O)[nH]1`, the melting point fell in the range of 248 to 250 °C. Take `CCCS(=O)(=O)Nc1cccc(N)c1C`: the melting point lay in the range of 99 to 101 °C. `O=C(O)Cn1c(=O)[nH]c2ccccc2c1=O` had a melting point of 295 to 297 °C. In turn, `CC(C)(CC(=O)c1ccc(Cl)cc1)C(=O)O` returned a melting point of 147 to 149 °C. Then `Oc1ccc(Oc2ccncc2)cc1`, with 181 to 183 °C. `O=C(Cc1ccccc1)C(Br)c1ccccc1` (configuration not stated) came in with a melting point of 47 to 49 °C. For `O=C(Cc1ccccc1)c1nc2ccccc2s1`, the melting point was 110 to 112 °C. `Cc1nc(Cl)c2c3c(sc2n1)CC(C)CC3` (configuration not stated) came in with a melting point of 89 to 91 °C.

The compound `O=C(O)c1sccc1S(=O)(=O)N1CCSCC1` showed a melting point of 144 to 146 °C.

For `O=C(O)c1noc2c1CCCC2`, the melting point was in the range of 124 to 126 °C. As to `CSCCC(NC(=O)c1cccc(C)c1)C(=O)O` (configuration not stated), the melting point lay in the range of 115 to 117 °C.

On to `CCC(C)Oc1cc(C(=O)O)ccn1` (configuration not stated), for which the melting point lay within 83 to 85 °C. In the case of `Cc1cccc(C(=O)Nc2ccc(O)cc2)c1`, the melting point lay in the range of 158 to 160 °C. `CC(=O)NCCC(N)=S`: the melting point was 99 to 101 °C. `c1ccc(NC2CCN(c3ccncc3)CC2)cc1`: the melting point was in the range of 145 to 147 °C. In turn, `N#Cc1cc(F)ccc1-n1ccc(N)n1` had a melting point of 128 to 130 °C. As to `COc1ccc([N+](=O)[O-])cc1NS(=O)(=O)c1ccc(Cl)c(C(=O)O)c1`, the melting point was in the range of 221 to 223 °C.

Consider `Nc1ccnc(Oc2ccccc2Cl)c1`, for which the melting point lay in the range of 121 to 123 °C. Then `N#Cc1ccc(F)c(CBr)c1`, with 44 to 46 °C; and `CCOC(=O)c1nn(-c2ccccc2)cc1/C=N/O`, with 111 to 113 °C; and `FC(F)(F)Cc1nc2cc(Br)ccc2[nH]1`, with 139 to 141 °C.
